{"source": "paper PMC10648598", "about": "“Physiologic and Transcriptomic Effects Triggered by Overexpression of Wild Type and Mutant DNA Topoisomerase I in Streptococcus pneumoniae” (International Journal of Molecular Sciences, 2023)", "target": "T1, TopoI (TopoIWT) (Streptococcus pneumoniae, UniProt Q8DPI9)", "T1 construct": "gene topA", "T1 sequence (Q8DPI9 1-701)": "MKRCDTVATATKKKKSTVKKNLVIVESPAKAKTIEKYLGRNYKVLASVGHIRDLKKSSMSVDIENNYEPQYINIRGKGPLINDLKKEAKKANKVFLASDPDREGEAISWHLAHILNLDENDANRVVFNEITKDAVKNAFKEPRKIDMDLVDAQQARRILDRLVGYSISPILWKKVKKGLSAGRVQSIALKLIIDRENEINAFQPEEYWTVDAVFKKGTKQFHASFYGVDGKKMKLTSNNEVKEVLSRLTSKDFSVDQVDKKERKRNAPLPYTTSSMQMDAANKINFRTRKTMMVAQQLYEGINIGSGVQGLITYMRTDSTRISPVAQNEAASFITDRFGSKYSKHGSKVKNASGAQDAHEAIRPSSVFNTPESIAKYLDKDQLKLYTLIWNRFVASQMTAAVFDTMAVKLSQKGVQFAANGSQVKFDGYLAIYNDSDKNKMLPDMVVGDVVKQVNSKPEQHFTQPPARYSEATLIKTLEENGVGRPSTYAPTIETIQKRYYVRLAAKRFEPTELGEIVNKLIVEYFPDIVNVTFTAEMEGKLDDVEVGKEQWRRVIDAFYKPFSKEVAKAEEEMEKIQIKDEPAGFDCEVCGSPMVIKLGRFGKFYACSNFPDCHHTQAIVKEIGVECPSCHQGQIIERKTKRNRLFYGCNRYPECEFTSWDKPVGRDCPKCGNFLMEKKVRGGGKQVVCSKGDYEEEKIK", "experiment": "biochemical"}
{"smiles": "CNCCc1cc2c(c3c1ccc1cc4c(cc13)OCO4)OCO2", "note": "[SCN, Seconeolitsine]", "values": [{"measurement": "IC50", "result": "6.8 ± 2", "unit": "µM"}]}
